Key:
[1] = target: T1, CDK6 protein kinase (GST-CDK6(1-326 end)) (Homo sapiens, UniProt Q00534); experiment: CDK6 protein kinase activity, Caliper mobility shift assay; format: biochemical; settings: substrate Peptide FAM-P8, 28° C. for 3 h
T1 construct: GST-CDK6(1-326 end); GST (N)
Protocol: (§1) Activity Assay: The CDK6 protein kinase activity was measured using the Caliper mobility shift assay (see J. Biomol. Screen, 2009, PP31). The test compound was dissolved in DMSO and diluted with a kinase buffer solution (20 mM HEPES-pH 7.5, 0.01% Triton X-100, 10 mM MgCl2, 2 mM DTT) and 5 μL of the compound at 5-fold final concentration of reaction dissolved in 10% DMSO was added in a 384-well plate. The compound-free control well was 5 μL of 10% DMSO, and the no-activity control well was 5 μL of kinase buffer. 10 μL of a 2.5-fold diluted CDK6 enzyme solution (GST-CDK6(1-326 end)) was added and incubated at room temperature for 10 min, and then 10 μL of the 2.5-fold diluted substrate solution Peptide FAM-P8 was added. The reaction was stopped by adding 25 μL of stop solution after incubation at 28° C. for 3 h, and the conversion rate data was read on a Caliper EZ Reader II (Caliper Life Sciences) and the conversion rate was converted to inhibition rate data according to above method. Among them, the inhibition rate %=(max−conversion)/(max−min)×100%.

[2] = target: T2, CDK4 protein kinase (GST-CDK4(1-303 end)) (Homo sapiens, UniProt P11802); experiment: CDK4 protein kinase activity, Caliper mobility shift assay; format: biochemical; settings: substrate Peptide FAM-P8, 28° C. for 3 h
T2 construct: GST-CDK4(1-303 end); GST (N)
T2 sequence (P11802 whole entry): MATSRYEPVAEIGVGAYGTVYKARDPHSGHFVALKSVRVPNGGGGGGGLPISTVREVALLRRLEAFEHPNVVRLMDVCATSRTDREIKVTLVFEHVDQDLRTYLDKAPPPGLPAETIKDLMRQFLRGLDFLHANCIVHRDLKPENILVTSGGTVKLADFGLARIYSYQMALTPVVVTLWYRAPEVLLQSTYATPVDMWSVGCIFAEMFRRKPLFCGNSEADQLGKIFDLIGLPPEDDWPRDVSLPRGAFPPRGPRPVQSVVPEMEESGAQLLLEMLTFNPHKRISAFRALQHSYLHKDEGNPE
T2 sequence (P30281 whole entry partner): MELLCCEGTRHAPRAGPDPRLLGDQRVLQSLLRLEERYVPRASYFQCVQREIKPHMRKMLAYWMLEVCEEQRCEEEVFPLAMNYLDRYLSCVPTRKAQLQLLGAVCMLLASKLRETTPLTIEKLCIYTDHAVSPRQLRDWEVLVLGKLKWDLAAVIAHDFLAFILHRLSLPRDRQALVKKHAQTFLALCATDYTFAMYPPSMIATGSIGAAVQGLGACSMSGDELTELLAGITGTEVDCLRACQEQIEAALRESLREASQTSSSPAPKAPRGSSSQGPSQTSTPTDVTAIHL
Protocol: as §1, with “CDK4” for “CDK6”, “(GST-CDK4(1-303” for “(GST-CDK6(1-326”

T1 sequence (Q00534 whole entry): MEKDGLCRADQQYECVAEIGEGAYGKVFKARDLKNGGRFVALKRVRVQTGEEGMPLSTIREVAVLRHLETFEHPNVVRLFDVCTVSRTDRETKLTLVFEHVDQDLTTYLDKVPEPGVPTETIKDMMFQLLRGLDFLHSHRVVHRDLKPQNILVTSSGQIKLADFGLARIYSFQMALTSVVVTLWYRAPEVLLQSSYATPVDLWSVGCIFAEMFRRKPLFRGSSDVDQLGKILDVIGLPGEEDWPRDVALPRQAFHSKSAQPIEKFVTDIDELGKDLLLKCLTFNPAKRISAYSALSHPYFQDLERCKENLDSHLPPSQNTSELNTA
T1 sequence (P30281 whole entry partner): as the sequence (P30281 whole entry partner) above

IC50 [1] [nM] | IC50 [2] [nM] | SMILES
20 to 100 | ≤ 20 | CCC(CC)N1C(=O)C(C)(C)Oc2cnc(Nc3ccc(CN4CCN(CC)CC4)cn3)nc21 [Compound I-38, 6,6-dimethyl-8-(3-pentyl)-2-(5-(4-ethyl-1-piperazinyl)methyl-pyridine-2-amino)-6H-pyrimido[5,4-b][1,4]oxazin-7(8H)-one]
≤ 20 | ≤ 20 | NC(=O)C1Oc2cnc(Nc3ccc(N4CCNCC4)cn3)nc2N(C2CCCC2)C1=O (stereo not shown) [Compound I-34, 6-carboxamide-8-cyclopentyl-2-(5-(1-piperazinyl)-pyridin-2-amino)-6H-pyrimido[5,4-b][1,4]oxazin-7(8H)-one]
20 to 100 | ≤ 20 | CCN1CCN(Cc2ccc(Nc3ncc4c(n3)N(c3ccccn3)C(=O)C(C)(C)O4)nc2)CC1 [Compound I-30, 6,6-dimethyl-8-(2-pyridyl)-2-(5-(4-ethyl-1-piperazinyl)methyl-pyridine-2-amino)-6H-pyrimido[5,4-b][1,4]oxazin-7(8H)-one]
≤ 20 | ≤ 20 | CCN1CCN(Cc2ccc(Nc3ncc4c(n3)N(c3ncccn3)C(=O)C(C)(C)O4)nc2)CC1 [Compound I-31, 6,6-dimethyl-8-(2-pyrimidinyl)-2-(5-(4-ethyl-1-piperazinyl)methyl-pyridine-2-amino)-6H-pyrimido[5,4-b][1,4]oxazin-7(8H)-one]

Further lines, the molecule ahead of its results:

SMILES | IC50 [1] [nM] | IC50 [2] [nM]
CC(C)N1CCN(c2ccc(Nc3ncc4c(n3)N(C3CCCC3)C(=O)C(C)(C)S4)nc2)CC1 [Compound I-24, 6,6-dimethyl-8-cyclopentyl-2-(5-(4-isopropyl-1-piperazinyl)-pyridin-2-amino)-6H-pyrimido[5,4-b][1,4]thiazin-7(8H)-one] | ≤ 20 | ≤ 20
CCN1CCN(Cc2ccc(Nc3ncc4c(n3)N(C3CCCC3)C(=O)C(C3CCC3)O4)nc2)CC1 (stereo not shown) [Compound I-14, 6-cyclobutyl-8-cyclopentyl-2-(5-(4-ethyl-1-piperazinyl)methyl-pyridin-2-amino)-6H-pyrimido[5,4-b][1,4]oxazin-7(8H)-one] | ≤ 20 | ≤ 20
O=C1N(C2CCCC2)c2nc(Nc3ccc(N4CCNCC4)cn3)ncc2OC12CC2 [Compound I-4, 8′-cyclopentyl-2′-(5-(1-piperazinyl)-pyridin-2-amino)spiro[cycloprop-1,6′-pyrimido[5,4-b][1,4]oxazin]-7′(8′H)-one] | 20 to 100 | ≤ 20
CC1(C)Sc2cnc(Nc3ccc(N4CCN(C5CCCCCC5)CC4)cn3)nc2N(C2CCCC2)C1=O [Compound I-23, 6,6-dimethyl-8-cyclopentyl-2-(5-(4-cycloheptyl-1-piperazinyl)-pyridin-2-amino)-6H-pyrimido[5,4-b][1,4]thiazin-7(8H)-one] | ≤ 20 | ≤ 20
CC(C)N1C(=O)C(C)(C)Oc2cnc(Nc3ccc(N4CCNCC4)cn3)nc21 [Compound I-1, 6,6-Dimethyl-8-isopropyl-2-(5-(1-piperazinyl)-pyridin-2-amino)-6H-pyrimido[5,4-b][1,4]oxazin-7(8H)-one] | ≤ 20 | ≤ 20
CC1(C)Oc2cnc(Nc3ccc(N4CCN(C5CCC5)CC4)cn3)nc2N(C2CCCC2)C1=O [Compound I-20, 6,6-dimethyl-8-cyclopentyl-2-(5-(4-cyclobutyl-1-piperazinyl)-pyridin-2-amino)-6H-pyrimido[5,4-b][1,4]oxazin-7(8H)-one] | ≤ 20 | ≤ 20
N#CC1Oc2cnc(Nc3ccc(N4CCNCC4)cn3)nc2N(C2CCCC2)C1=O (stereo not shown) [Compound I-10, 6-cyano-8-cyclopentyl-2-(5-(1-piperazinyl)-pyridin-2-amino)-6H-pyrimido[5,4-b][1,4]oxazin-7(8H)-one] | 100 to 500 | ≤ 20

Reference: patent US10351578B2, “Heterocyclic-substituted pyridinopyrimidinone derivative as CDK inhibitor and use thereof” (Shanghai Xunhe Pharmaceutical Technology Co. Ltd., priority 2016, dated 2019)
